Among the data in PubChem BioAssay (NCI) are GI50 and TGI values, retold here.

Test systems include MDA-MB-231 breast; MALME-3M melanoma; MDA-MB-435; OVCAR-4 ovarian; HCT-15 colon; OVCAR-3 ovarian; MCF7 breast; SF-295 CNS; A498 renal; HT29 colon.
What all share (experiment): NCI-60 cell line screen, 48 h

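Protocol summary: plate cells (96-well), add compound at 5 concentrations, incubate 48 h, interpolate endpoints linearly. At the GI50, growth is halved. Definition used: TGI = concentration required for complete inhibition of growth.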 Some results are limits rather than exact numbers.

Take `O=C(Nc1cccc([N+](=O)[O-])c1)c1ccc2ccccc2c1O`: the GI50 in the test with MDA-MB-231 breast was 22.2 µM; in the test with MALME-3M melanoma, 1.58 µM; with MDA-MB-435, 3.47 µM; in the test with OVCAR-4 ovarian it was 4.95 µM; with HCT-15 colon, 9 µM; in the test with OVCAR-3 ovarian it was 2.61 µM. Further, the GI50 in the test on MCF7 breast is 2.88 µM; with SF-295 CNS, 3.47 µM; in the test with A498 renal, 3.27 µM; in the test on HT29 colon it was 22 µM. Also, the TGI with MDA-MB-231 breast was over 81.9 µM; with MALME-3M melanoma, 6.28 µM; with MDA-MB-435, over 100 µM; in the test on OVCAR-4 ovarian, over 100 µM; in the test on HCT-15 colon, over 78.3 µM; in the test with OVCAR-3 ovarian it was 8.83 µM. Besides, the TGI was over 43.2 µM with MCF7 breast, over 82.8 µM with SF-295 CNS, over 66.7 µM in the test with A498 renal and over 100 µM with HT29 colon.
With `CCCCCCCCCCCCCCCCOC(=O)c1c(C)[nH]c(/C=C2\N=C(c3ccc[nH]3)C=C2OC)c1C`, the GI50 in the test on MDA-MB-231 breast is 0.789 µM; in the test with MALME-3M melanoma it was 3.67 µM; with MDA-MB-435, 0.307 µM; with OVCAR-4 ovarian, 2.71 µM; with HCT-15 colon, 2.21 µM; with OVCAR-3 ovarian, 1.67 µM. Also, the GI50 was 0.0686 µM with MCF7 breast, 2.7 µM in the test on SF-295 CNS, 1.51 µM with A498 renal and 0.083 µM with HT29 colon. Moreover, the TGI with MDA-MB-231 breast is 10.1 µM; with MALME-3M melanoma, 29.8 µM; in the test on MDA-MB-435, over 100 µM; with OVCAR-4 ovarian, 53.6 µM; with HCT-15 colon it was over 100 µM; in the test with OVCAR-3 ovarian, 6.91 µM. The TGI in the test with MCF7 breast was over 100 µM; with SF-295 CNS, 11 µM; in the test on A498 renal it was 5.47 µM; in the test on HT29 colon, over 100 µM.
In the case of `CC(=O)Nc1ccc2c(c1)C(=O)c1cccc(F)c1-2`, the TGI is over 100 µM with MDA-MB-231 breast; over 100 µM with MALME-3M melanoma; over 100 µM in the test on MDA-MB-435; over 100 µM in the test on OVCAR-4 ovarian; over 80.1 µM with HCT-15 colon; over 100 µM with OVCAR-3 ovarian. Besides, the TGI is over 63.9 µM in the test on MCF7 breast, over 100 µM with SF-295 CNS, over 100 µM in the test with A498 renal and over 100 µM with HT29 colon. Moreover, the GI50 with A498 renal is 31.3 µM.
Take `COc1ccc2c(c1)C(=O)/C(=C/c1ccc([N+](=O)[O-])s1)O2`: the GI50 with MDA-MB-231 breast is 0.203 µM; with MALME-3M melanoma, 0.451 µM; with MDA-MB-435, 0.314 µM; with OVCAR-4 ovarian, 0.34 µM; in the test on HCT-15 colon, 0.219 µM; with OVCAR-3 ovarian, 0.252 µM. For the same molecule, the GI50 was 0.344 µM with MCF7 breast, 2.95 µM in the test on SF-295 CNS, 2.05 µM in the test with A498 renal and 0.502 µM in the test on HT29 colon. For the same molecule, the TGI was found to be 0.474 µM in the test on MDA-MB-231 breast; 1.76 µM with MALME-3M melanoma; 1.76 µM with MDA-MB-435; 1.14 µM with OVCAR-4 ovarian; 0.697 µM with HCT-15 colon; 0.548 µM with OVCAR-3 ovarian. For the same molecule, the TGI in the test on MCF7 breast is over 100 µM; with SF-295 CNS it was 9.61 µM; in the test with A498 renal, 6.51 µM; with HT29 colon it was 2.67 µM.
Turning to `Cc1[nH]n(-c2ccc(S(=O)(=O)O)cc2)c(=O)c1N=Nc1ccccc1`, the TGI with MDA-MB-231 breast, in the test on MALME-3M melanoma, in the test with MDA-MB-435, with OVCAR-4 ovarian, in the test with HCT-15 colon and with OVCAR-3 ovarian was over 100 µM in each case. For the same molecule, the TGI in the test with MCF7 breast, in the test on SF-295 CNS, in the test with A498 renal and with HT29 colon was over 100 µM each time.
Regarding `N#Cc1c(-c2ccc(Cl)cc2)c(-c2ccc(Cl)cc2)nn(CCOC(=O)CCC(=O)O)c1=O`, the TGI is 28.6 µM in the test on MDA-MB-231 breast; 74.9 µM with MALME-3M melanoma; 0.193 µM in the test with MDA-MB-435; over 91.6 µM with OVCAR-4 ovarian; 4.97 µM in the test on HCT-15 colon; 0.853 µM in the test with OVCAR-3 ovarian. Moreover, the TGI with MCF7 breast is over 62.3 µM; in the test on SF-295 CNS it was 16.9 µM; in the test on A498 renal, 9.23 µM; in the test on HT29 colon it was 6.39 µM.
As for `CO/N=C(\COc1ccc2c(c1)oc(=O)c1cc(OC)ccc12)c1cccc(OC)c1`, the GI50 in the test on MDA-MB-231 breast, in the test on MALME-3M melanoma, in the test on MDA-MB-435, with OVCAR-4 ovarian, in the test on HCT-15 colon and in the test on OVCAR-3 ovarian was over 100 µM throughout. In addition, the GI50 was over 100 µM in the test with MCF7 breast, over 100 µM in the test on SF-295 CNS, 80.2 µM with A498 renal and over 100 µM with HT29 colon. For the same molecule, the TGI with MDA-MB-231 breast, with MALME-3M melanoma, with MDA-MB-435, in the test with OVCAR-4 ovarian, with HCT-15 colon and in the test with OVCAR-3 ovarian was over 100 µM throughout. For the same molecule, the TGI in the test with MCF7 breast, in the test on SF-295 CNS, with A498 renal and in the test on HT29 colon was over 100 µM each time.
As to `CC(C)=CC(O)C/C(C)=C/CC/C(C)=C/CCC1(C)C(CCCO)/C(=C(/C)C=O)CCC1(C)O` (stereo unspecified), the TGI with MDA-MB-231 breast was 74.1 µM; in the test with MALME-3M melanoma, over 100 µM; with MDA-MB-435, over 100 µM; with OVCAR-4 ovarian, over 100 µM; with HCT-15 colon, over 100 µM; in the test on OVCAR-3 ovarian it was over 100 µM. In addition, the TGI in the test with MCF7 breast was 79.2 µM; with SF-295 CNS, over 100 µM; in the test on A498 renal it was over 100 µM; with HT29 colon it was 70.9 µM.
Take `CO/N=C(\COc1ccc2c(c1)oc(=O)c1cc(OC)ccc12)c1ccc(F)cc1`: the GI50 in the test with MDA-MB-231 breast is 15.8 µM; in the test on MALME-3M melanoma it was 26.7 µM; in the test on MDA-MB-435, 66.1 µM; with OVCAR-4 ovarian, 21.2 µM; with HCT-15 colon, 24.7 µM; in the test on OVCAR-3 ovarian, 16.7 µM. In addition, the GI50 with MCF7 breast was 34.7 µM; with SF-295 CNS, 24.1 µM; in the test with A498 renal, 22.3 µM; in the test with HT29 colon, 16.7 µM. The TGI in the test on MDA-MB-231 breast is 42.8 µM; in the test with MALME-3M melanoma it was 84.6 µM; in the test with MDA-MB-435, over 100 µM; with OVCAR-4 ovarian it was 58.3 µM; with HCT-15 colon, 81.9 µM; in the test with OVCAR-3 ovarian it was 34.2 µM. Moreover, the TGI is over 100 µM in the test on MCF7 breast, 87.5 µM in the test with SF-295 CNS, 93.5 µM in the test with A498 renal and 66.8 µM with HT29 colon.
